Laboratory results taken from ChEMBL document CHEMBL5465560, “Selectivity Literature for EUbOPEN Chemogenomic Library” (2024).

Legend:
[1] = target: T1, Histone-lysine N-methyltransferase EHMT2 (Homo sapiens) (UniProt Q96KQ7); test: Selectivity interaction (Methyltransferase screen (Scintillation proximity assays)) EUB0000255b EHMT2
T1 sequence (whole entry): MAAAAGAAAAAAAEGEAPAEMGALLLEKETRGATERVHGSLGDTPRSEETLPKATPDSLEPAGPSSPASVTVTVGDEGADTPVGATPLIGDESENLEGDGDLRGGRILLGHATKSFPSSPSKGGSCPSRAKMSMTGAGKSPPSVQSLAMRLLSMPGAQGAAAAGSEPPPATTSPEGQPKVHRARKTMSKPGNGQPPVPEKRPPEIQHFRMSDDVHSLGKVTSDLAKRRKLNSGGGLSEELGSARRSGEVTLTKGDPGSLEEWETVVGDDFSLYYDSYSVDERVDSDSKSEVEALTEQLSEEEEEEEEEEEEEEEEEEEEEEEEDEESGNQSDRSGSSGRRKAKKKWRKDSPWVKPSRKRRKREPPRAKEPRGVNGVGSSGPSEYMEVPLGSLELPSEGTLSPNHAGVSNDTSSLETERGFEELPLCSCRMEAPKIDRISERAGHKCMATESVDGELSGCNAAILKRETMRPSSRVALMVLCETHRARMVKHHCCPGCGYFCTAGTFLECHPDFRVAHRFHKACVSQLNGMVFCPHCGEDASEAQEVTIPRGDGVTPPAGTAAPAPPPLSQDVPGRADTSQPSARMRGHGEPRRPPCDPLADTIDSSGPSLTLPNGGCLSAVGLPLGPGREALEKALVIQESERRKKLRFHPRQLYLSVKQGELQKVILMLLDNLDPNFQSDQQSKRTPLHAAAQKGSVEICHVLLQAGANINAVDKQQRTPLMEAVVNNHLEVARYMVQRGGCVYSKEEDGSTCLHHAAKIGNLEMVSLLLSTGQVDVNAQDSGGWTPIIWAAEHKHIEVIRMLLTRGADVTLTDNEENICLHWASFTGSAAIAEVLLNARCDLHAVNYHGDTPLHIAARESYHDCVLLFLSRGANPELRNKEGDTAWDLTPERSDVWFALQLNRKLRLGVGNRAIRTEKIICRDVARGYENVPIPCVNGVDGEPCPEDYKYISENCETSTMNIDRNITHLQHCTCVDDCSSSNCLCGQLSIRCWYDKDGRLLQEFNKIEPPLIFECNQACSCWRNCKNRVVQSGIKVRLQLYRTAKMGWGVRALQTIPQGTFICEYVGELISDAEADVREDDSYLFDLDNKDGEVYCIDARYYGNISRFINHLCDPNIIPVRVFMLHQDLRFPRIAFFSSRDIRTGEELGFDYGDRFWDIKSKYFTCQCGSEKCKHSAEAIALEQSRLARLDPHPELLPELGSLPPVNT

[2] = target: T2, Mitogen-activated protein kinase kinase kinase kinase 2 (Homo sapiens) (UniProt Q12851); test: Selectivity interaction (KinomeScan (DiscoverX)) EUB0000092b MAP4K2; details: at 10 µM
T2 sequence (whole entry): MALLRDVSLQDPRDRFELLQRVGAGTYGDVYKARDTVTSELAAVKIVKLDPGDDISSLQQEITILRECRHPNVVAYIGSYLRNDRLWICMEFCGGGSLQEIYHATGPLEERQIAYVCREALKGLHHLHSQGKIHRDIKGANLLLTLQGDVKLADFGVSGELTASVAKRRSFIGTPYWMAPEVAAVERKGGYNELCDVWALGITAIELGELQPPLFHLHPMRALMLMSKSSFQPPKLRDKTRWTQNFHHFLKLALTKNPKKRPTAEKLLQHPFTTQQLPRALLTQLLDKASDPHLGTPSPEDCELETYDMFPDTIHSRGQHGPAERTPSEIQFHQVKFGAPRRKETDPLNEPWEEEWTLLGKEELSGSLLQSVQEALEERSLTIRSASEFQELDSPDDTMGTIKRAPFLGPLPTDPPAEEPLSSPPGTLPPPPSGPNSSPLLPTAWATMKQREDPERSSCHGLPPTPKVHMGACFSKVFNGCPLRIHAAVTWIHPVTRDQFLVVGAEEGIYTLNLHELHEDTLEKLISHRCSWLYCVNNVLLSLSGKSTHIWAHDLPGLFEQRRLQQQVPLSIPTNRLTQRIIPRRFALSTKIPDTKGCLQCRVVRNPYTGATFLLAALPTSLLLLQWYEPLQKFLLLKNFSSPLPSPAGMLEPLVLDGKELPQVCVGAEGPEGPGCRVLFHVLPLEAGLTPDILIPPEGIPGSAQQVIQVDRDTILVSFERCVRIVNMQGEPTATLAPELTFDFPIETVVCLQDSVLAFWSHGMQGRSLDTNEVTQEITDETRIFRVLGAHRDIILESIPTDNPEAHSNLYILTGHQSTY

[3] = target: T3, Ephrin type-A receptor 3 (Homo sapiens) (UniProt P29320); test: Selectivity interaction (KinomeScan (DiscoverX)) EUB0001049a EPHA3; details: at 1 µM
T3 sequence (whole entry): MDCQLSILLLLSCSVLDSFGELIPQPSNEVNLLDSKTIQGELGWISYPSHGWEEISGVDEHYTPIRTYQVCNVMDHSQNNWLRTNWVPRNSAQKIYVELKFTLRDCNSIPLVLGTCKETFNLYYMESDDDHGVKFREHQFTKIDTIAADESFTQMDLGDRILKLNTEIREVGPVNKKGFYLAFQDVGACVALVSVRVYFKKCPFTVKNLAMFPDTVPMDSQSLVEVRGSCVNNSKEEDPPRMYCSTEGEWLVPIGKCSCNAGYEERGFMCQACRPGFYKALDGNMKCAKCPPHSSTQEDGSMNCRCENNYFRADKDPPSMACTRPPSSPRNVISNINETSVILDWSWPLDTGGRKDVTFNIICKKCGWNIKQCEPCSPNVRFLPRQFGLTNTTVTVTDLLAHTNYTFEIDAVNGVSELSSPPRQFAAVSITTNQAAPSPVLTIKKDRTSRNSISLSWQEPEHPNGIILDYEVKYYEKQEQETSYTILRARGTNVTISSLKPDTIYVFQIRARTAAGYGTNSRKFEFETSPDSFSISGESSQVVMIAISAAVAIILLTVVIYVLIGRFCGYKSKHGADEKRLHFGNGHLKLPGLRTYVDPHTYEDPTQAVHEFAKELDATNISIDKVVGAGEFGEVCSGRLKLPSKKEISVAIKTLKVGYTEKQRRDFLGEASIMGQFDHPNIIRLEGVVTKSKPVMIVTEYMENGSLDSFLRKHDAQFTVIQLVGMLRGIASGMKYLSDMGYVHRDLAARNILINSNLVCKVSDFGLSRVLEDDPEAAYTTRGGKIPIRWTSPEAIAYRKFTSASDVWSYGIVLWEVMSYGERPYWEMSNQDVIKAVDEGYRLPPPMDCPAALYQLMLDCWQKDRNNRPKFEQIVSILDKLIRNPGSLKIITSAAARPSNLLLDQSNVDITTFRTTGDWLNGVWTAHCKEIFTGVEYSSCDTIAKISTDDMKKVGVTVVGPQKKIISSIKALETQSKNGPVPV

COCCN1CCC(c2cc(CN(C)C(=O)c3cccc(Oc4ccccc4)c3)ccn2)CC1
% activity ([1]; at 1 µM): > 95%
% activity ([1]; at 10 µM): > 90%

CCC(=O)N1CCN(c2ccc(-n3c(=O)ccc4cnc5ccc(-c6cnc7ccccc7c6)cc5c43)cc2C(F)(F)F)CC1
% of control [2]: 35%

COc1cc(Nc2nc(C)cc(-c3cnn4nc(OC)ccc34)n2)cc(C(F)(F)F)c1
% of control [3]: 80%
